The source of these data is patent publication US8933270B2, “Use of docasatrienes, resolvins, and their stable analogs in the treatment of airway diseases and asthma” (The Brigham and Women's Hospital, Inc., priority 2002, dated 2015).

Series [1] has as its system airway leukocyte accumulation. In words: OVA sensitization and aerosol challenge: lung histology and BAL leukocytes. The format is in vivo. Here is the method:
To determine if PD1 and Resolvin E1 had properties of a counter-regulatory mediator during airway inflammation, physiologically relevant quantities (2, 20 or 200 ng) were administered by intravenous injection to allergen sensitized animals just prior (30 min) to aerosol challenge on 4 consecutive days. […] In conjunction with decreased airway inflammation, levels of the counter-regulatory eicosanoid LXA4 were also […] in the presence of PD1 (data not shown).
(§1) Five to seven week old male FvB mice (Charles River Laboratories, Wilmington, Mass.) were housed in isolation cages under viral antibody-free conditions. Mice were fed a standard diet (Laboratory Rodent Diet 5001, PMI Nutrition International, Richmond, Ind.) that contained no less than 4.5% total fat with 0.26% omega-3 fatty acids and <0.01% C20:4. After Harvard Medical Area IRB approval (Protocol #02570), mice were sensitized with intraperitoneal injections of ovalbumin (OVA) (Grade III; Sigma Chemical Co., St. Louis, Mo.) (10 μg) plus 1 mg aluminum hydroxide (ALUM) (J. T. Baker Chemical Co.; Phillipsburg, N.J.) as adjuvant in 0.2 ml PBS on days 0 and 7. On days 14, 15, 16 and 17, the mice received PD1 (2, 20 or 200 ng), Resolvin E1 (200 ng) (products of biogenic synthesis (Hong, Gronert et al. 2003)), or PBS with 1.6 mM CaCl2 and 1.6 mM MgCl2 (0.1 ml) by intravenous injection 30 min prior to an aerosol challenge containing either PBS or 6% OVA for 25 min/day. On day 18, 24 h after the last aerosol challenge, airway responsiveness to aerosolized methacholine (0, 20, 50 and 75 mg, 10 sec) was measured, bilateral bronchoalveolar lavage (BAL) (2 aliquots of 1 ml PBS plus 0.6 mM EDTA) was performed or tissues were harvested for histological analysis. Lung resistance was measured using a Flexivent ventilator (SciReq, Montreal, Quebec). Resistance was measured as a function of time for each animal, and peak and average values for each dose of methacholine were recorded. No BAL or histological analysis was performed on those animals undergoing airway hyper-responsiveness or lipid extraction studies.
(§2) Tissue morphometry was performed by a member (K. Haley) of the Lung Histopathology Core Laboratory at Brigham and Women's Hospital who was blinded to the experimental conditions prior to histological analyses. Three fields per slide were examined at 200× magnification for vessels, large airways and alveoli with EOS counted at 400× magnification in randomly assigned fields. Vessels were identified by perivascular smooth muscle, and large airways were identified by at least ½ their diameter either cuboidal or columnar epithelia. Measurement of inflammatory mediators was determined in cell-free BAL fluid (2000 g, 10 min) by sensitive and specific ELISAs, in tandem, for interleukin-5 (IL-5), IL-12, IL-13, PGD2 (R&D Systems, Minneapolis, Minn.), cysteinyl LTs, (Cayman Chemical Co, Ann Arbor, Mich.), and LXA4 (Neogen, Lexington, Ky.). Cells in BALF were resuspended in PBS, enumerated by hemocytometer, and concentrated onto microscope slides by cytocentrifuge (STATspin) (265 g). Cells were stained with a Wright-Giemsa stain (Sigma Chemical Co.) to determine leukocyte differentials (after counting ≧200 cells).

Series [2] has as its system airway hyper-responsiveness. In words: OVA model: airway responsiveness to inhaled methacholine (lung resistance). Conditions: PD1 0-200 ng; methacholine 0, 20, 50, 75 mg. In kind it is in vivo, FvB mice. The protocol:
Because increased airway reactivity is a diagnostic hallmark of asthma, it was also determined if PD 1 regulated airway hyper-responsiveness to inhaled methacholine. After allergen sensitization and aerosol challenge in the presence of PD 1 (0-200 ng), animals were ventilated and exposed (10 sec) to increasing concentrations of inhaled methacholine (0, 20, 50 and 75 mg).
Five to seven week old male FvB mice (Charles River Laboratories, Wilmington, Mass.) were housed in isolation cages under viral antibody-free conditions. Mice were fed a standard diet (Laboratory Rodent Diet 5001, PMI Nutrition International, Richmond, Ind.) that contained no less than 4.5% total fat with 0.26% omega-3 fatty acids and <0.01% C20:4. […] On day 18, 24 h after the last aerosol challenge, airway responsiveness to aerosolized methacholine (0, 20, 50 and 75 mg, 10 sec) was measured, bilateral bronchoalveolar lavage (BAL) (2 aliquots of 1 ml PBS plus 0.6 mM EDTA) was performed or tissues were harvested for histological analysis. Lung resistance was measured using a Flexivent ventilator (SciReq, Montreal, Quebec). Resistance was measured as a function of time for each animal, and peak and average values for each dose of methacholine were recorded. […]

The test system of series [3] is BALF cytokines and lipid mediators. The experiment in a line: OVA model: inflammatory mediators in BAL fluid by ELISA. In kind it is in vivo, FvB mice.
From the text: as §1, §2
On the technique in general: ELISA stands for enzyme-linked immunosorbent assay.

The next series relates to PMN infiltration. In words: Zymosan A-induced peritonitis. The format is in vivo, FVB mice. Conditions: i.v. bolus before zymosan A, lavage at 2 h.
Setting [4] is: i.v. 30 min before aerosol challenge on 4 days.

With `CC/C=C\C[C@H](O)\C=C/C=C/C=C/C(O)C/C=C\C/C=C\CCC(=O)O` (stereo in doubt) [PD1, 10,17S-dihydroxy-4,7,15,19-cis-11,13-trans-docosahexaenoic acid], in series [1] (10,17-DT 20 ng and 200 ng, Resolvin E1 200 ng), the “eosinophil and lymphs (FIG. 25)” value was “reduced”. Besides, the “total leukocytes, EOS and Lymphs in BAL fluid” value in series [1] (PD1 2, 20 or 200 ng, Resolvin E1 200 ng i.v.) is on record as “decreased”. In addition, the “behavioral or physical signs of toxicity” value in series [1] (PD1 treatment, nanogram quantities i.v.) is reported as “No behavioral or physical signs of toxicity”. For the same compound, the “lowest dose reducing TH2 lymphocyte activation / eosinophil recruitment” value in series [1] (i.v.) was found to be 2 ng. Further, in series [1] (setting [4]), the “EOS tissue infiltration around vessels, large and peripheral airways (morphometry)” value is “significant decreases”; the “edema and epithelial hyperplasia” value is “markedly decreased”. In addition, in series [1] (i.v. 30 min before aerosol challenge on 4 days, vs vehicle), the “eosinophils and lymphocytes in peribronchiolar regions and airspaces” value is listed as “substantially less”. In addition, the “peak and average lung resistance in response to methacholine” value in series [2] is “decreased both peak and average lung resistance”. For the same compound, in series [3] (BAL fluid), the IL-12 levels result is “no significant effect”, the “allergen-induced increase in CysLTs” value was “blocked allergen-induced increases”, the “allergen-induced increase in IL-13” value is given as “blocked allergen-induced increases” and the “allergen-induced increase in PGD2” value was “blocked allergen-induced increases”. Moreover, the “potency of inhibitory concentrations relative to the LX analog” value in series [3] (IL-13 and CysLT generation) lay in the range of 1 to 2 log orders. The “levels of LXA4” value in series [3] (data not shown) is “diminished”. Also, the “inhibition of PMN/leukocyte infiltration” value in the series on PMN infiltration (listed as 10,17S-docosatrienes) is listed as “potent inhibition”. Also, in the series on PMN infiltration (listed as 10,17 di-HDHA), the “inhibition of PMN/leukocyte infiltration” value is “inhibited”.
